Assay results: patent publication US10934277B2, “Enantiomerically purified GPER agonist for use in treating disease states and conditions” (Linnaeus Therapeutics, Inc., priority 2018, dated 2021)
Where “and” joins values, the source holds several entries; their conditions need not be identical. Equal entries are not always repeated. One block for each molecule: values may come before it.

Columns and labels:
[1] = tested on: CYP1A2; assay: Cytochrome P450 induction in hepatocytes, CYP1A2; format: in vitro ADME; details: hepatocytes from three different human cell lines; 1 μM, 10 μM and 100 μM
[2] = Solubility measurement in pH buffers; format: physicochemical
[3] = LogD7.4 by shake-flask method (pH 7.4 phosphate buffer / n-octanol); format: physicochemical; details: for Concentration in pH buffer 7.4: aqueous phase
Protocol: Log D7.4 was measured with the solvent systems of pH 7.4 phosphate buffer and n-octanol by shake-flask method.

[4] = biological target: HTR2B (Homo sapiens, UniProt P41595); assay: Off target selectivity assay, HTR2B; format: cell-based; details: dose response, concentrations up to 10 μM; read-out: IC50 or EC50 on HTR2B
Sequence of HTR2B (P41595 whole entry): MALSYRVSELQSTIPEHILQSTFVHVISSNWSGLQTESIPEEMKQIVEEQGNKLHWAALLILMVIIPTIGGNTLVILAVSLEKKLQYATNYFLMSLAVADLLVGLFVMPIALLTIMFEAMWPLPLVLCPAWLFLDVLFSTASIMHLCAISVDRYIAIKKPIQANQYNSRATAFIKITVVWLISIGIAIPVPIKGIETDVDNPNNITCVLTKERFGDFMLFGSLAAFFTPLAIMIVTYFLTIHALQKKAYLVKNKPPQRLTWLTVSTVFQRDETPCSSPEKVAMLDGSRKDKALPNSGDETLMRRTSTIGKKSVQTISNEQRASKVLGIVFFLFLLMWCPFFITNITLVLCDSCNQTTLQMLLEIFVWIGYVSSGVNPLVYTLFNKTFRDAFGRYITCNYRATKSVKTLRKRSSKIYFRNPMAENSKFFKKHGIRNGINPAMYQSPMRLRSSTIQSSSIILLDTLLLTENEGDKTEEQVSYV
Protocol: (§1) Final assay vehicle concentration was 1%.
(§2) For Gi coupled GPCRs, EC80 forskolin was included.
(§3) DMSO concentration for all readouts is ≤0.2%.
(§4) Probenicid was prepared fresh. Cells were loaded with dye prior to testing.

[5] = tested on: CYP3A4; assay: Cytochrome P450 induction in hepatocytes, CYP3A4; format: in vitro ADME; details: hepatocytes from three different human cell lines; 1 μM, 10 μM and 100 μM
[6] = tested on: YUMM1.7 melanoma cells; assay: YUMM1.7 proliferation assay (4 day growth); format: cell-based; details: 500 nM; for doubling compared with that seen with the vehicle / Doublings: 4 days; for Doublings / cell count after 4 days of growth (single replicates) / average cell count after 4 days of growth: starting cell number 15,000; for cell count after 4 days of growth (single replicates): 5 replicates; for average cell count after 4 days of growth: average of 5 replicates
Protocol: YUMM1.7 cells were cultured for at least 1 passage after thawing and were cultured in DMEM with 5% FBS (Invitrogen) and 1% antibiotic-antimycotic (gibco) at 37C 5% CO2. Proliferation assays were performed by plating 15,000 cells in 12-well plates with 5 replicates per condition tested. Media and drugs were refreshed on Day 2. On Day 4, cells were trypsinized using 0.25 ml 0.05% Trypsin with EDTA (Invitrogen) for 5 minutes to detach from the plate, mixed with 0.75 ml of culture media, and counted using a hemocytometer.
Starting cell numbers were 15,000.

[7] = Plasma concentration of SRR G-1 in rats after oral dosing (LC-MS/MS); format: in vivo; details: rat, individual animals (R1-R9); for Plasma Conc.: PO 10 mg/kg, listed as SRR G-1 Free Base
Description: The results are shown in Tables 22-24 for each respectively.

[8] = biological target: T1, OATP1B1 (Homo sapiens, UniProt Q9Y6L6); assay: Drug transporter fluorometric inhibition, OATP1B1; format: in vitro ADME
T1 sequence (Q9Y6L6 1-691): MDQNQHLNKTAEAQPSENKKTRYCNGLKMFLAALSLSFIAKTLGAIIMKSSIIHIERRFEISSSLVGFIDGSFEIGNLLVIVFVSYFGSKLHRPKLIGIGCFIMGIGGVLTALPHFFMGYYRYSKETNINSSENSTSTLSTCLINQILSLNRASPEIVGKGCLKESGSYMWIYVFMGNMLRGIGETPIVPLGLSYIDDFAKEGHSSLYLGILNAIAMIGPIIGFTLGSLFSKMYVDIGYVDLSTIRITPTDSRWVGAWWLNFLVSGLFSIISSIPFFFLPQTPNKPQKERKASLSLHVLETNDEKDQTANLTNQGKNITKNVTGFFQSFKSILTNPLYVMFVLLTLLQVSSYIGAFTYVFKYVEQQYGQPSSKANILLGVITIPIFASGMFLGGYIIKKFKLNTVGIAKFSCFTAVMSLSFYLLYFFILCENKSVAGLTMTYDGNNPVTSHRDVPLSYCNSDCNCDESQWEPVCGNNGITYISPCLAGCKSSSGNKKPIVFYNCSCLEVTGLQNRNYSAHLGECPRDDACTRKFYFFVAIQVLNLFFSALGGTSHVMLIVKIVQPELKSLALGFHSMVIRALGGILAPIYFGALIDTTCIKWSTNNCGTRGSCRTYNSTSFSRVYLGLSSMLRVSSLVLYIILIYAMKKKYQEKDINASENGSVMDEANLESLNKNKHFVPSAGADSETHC
Protocol: Drug transporter (fluorometric inhibition)
The percent of control was calculated using the following equation. The percent of inhibition was calculated by subtracting the percent of control from 100. The IC50 value (concentration causing a half-maximal inhibition of the control value) was determined by non-linear regression analysis of the concentration-response curve using the Hill equation.
Compound is the individual reading in the presence of the test compound. T1 is the mean reading in the absence of the test compound. Background (for P-gp and BCRP) is the mean reading in the presence of the highest effective concentration of the reference inhibitor. Background (for OATP1B1, OATP1B3, OAT1, OAT3, and OCT2) is the mean reading in the absence of both the test compound and the substrate.

[9] = biological target: T2, HTR1A (Homo sapiens, UniProt P08908); assay: Off target selectivity assay, HTR1A; format: cell-based; details: dose response, concentrations up to 10 μM; read-out: IC50 or EC50 on HTR1A
T2 sequence (P08908 1-422): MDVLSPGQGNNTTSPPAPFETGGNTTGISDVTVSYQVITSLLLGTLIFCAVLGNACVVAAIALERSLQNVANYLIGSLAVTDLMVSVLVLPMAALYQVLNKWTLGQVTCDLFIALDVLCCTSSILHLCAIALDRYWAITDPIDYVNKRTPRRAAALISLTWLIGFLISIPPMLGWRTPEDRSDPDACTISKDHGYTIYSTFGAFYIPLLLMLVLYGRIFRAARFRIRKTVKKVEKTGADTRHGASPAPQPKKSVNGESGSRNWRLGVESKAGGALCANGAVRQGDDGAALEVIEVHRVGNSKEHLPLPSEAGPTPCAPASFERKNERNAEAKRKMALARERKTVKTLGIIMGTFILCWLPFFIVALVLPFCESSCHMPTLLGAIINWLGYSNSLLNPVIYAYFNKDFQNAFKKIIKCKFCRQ
Protocol: as §1, §2, §3, §4

[10] = shake-flask, single samples #1-3

- solubility at 24 h ([2]; pH 2, aqueous buffer, thermodynamic from solid, all pH buffers 2.0 to 8.0, 37° C., 24 hrs, read-out: solubility at pH 2.0-8.0): < 0.72 µg/mL
- form change in all the pH buffers ([2]; pH 2.0 to 8.0, after 24 hrs): No form change was observed
- LogP* ([3]; LogP = LogD(pH) + Log [1 + 10^(pKa −pH)]): >3.22
- logP ([3]; n-octanol / pH 7.4 phosphate buffer, pH 7.4, LogP = LogD(pH) + Log [1 + 10^(pKa −pH)]): > 3.22
- logD ([3]; n-octanol / pH 7.4 phosphate buffer, shake-flask, pH 7.4 phosphate buffer and n-octanol): > 3.22
- Concentration in pH buffer 7.4 [3, 10]: <0.82 μg/mL
- Concentration in pH buffer 7.4 ([3]; shake-flask, single samples #1-3, listed as SRR G-1 freebase): < 0.82 μg/mL
- Average of LogD7.4 ([3]; shake-flask, pH 7.4 phosphate buffer and n-octanol): > 3.22
- Concentration in n-octanol [3, 10]: 1370 µg/mL and 1340 µg/mL
- LogD7.4 [3, 10]: >3.22 and >3.21
- IC50 [4]: 8.2 µM
- concentration at 1 h ([7]; male, plasma, po, 10 mg/kg, time 1.00 h, read-out: Plasma Conc.): 0.00396 µg/mL
- concentration at 8 h ([7]; male, plasma, po, 10 mg/kg, time 8.00 h, read-out: Plasma Conc.): 0.00172 µg/mL
- concentration at 24 h ([7]; male, plasma, po, 10 mg/kg, time 24.0 h, LLOQ 0.100 ng/mL, read-out: Plasma Conc.): 0.000127 µg/mL
- Plasma Conc. ([7]; time 0.500 h): 1.91 ng/mL and 2.60 ng/mL and 1.23 ng/mL
- Plasma Conc. ([7]; time 1.00 h): 6.03 ng/mL and 3.15 ng/mL
- Plasma Conc. ([7]; time 2.00 h): 2.96 ng/mL and 7.56 ng/mL and 2.71 ng/mL
- Plasma Conc. ([7]; time 4.00 h): 2.18 ng/mL and 4.67 ng/mL and 1.39 ng/mL
- Plasma Conc. ([7]; time 8.00 h): 1.58 ng/mL and 1.47 ng/mL
- Plasma Conc. ([7]; time 24.0 h, LLOQ 0.100 ng/mL): 0.169 ng/mL and BQL
- inhibition at 10 µM [8]: 82.5%
SMILES: CC(=O)c1ccc2c(c1)[C@@H]1C=CC[C@@H]1[C@H](c1cc3c(cc1Br)OCO3)N2 (single isomer, unassigned) [SRR G-1]
- CYP1A2 induction [1]: induced at both 1 μM and 10 μM in only 1 of the 3 cell lines
- CYP3A4 induction [5]: induced at only 10 μM in 2 of the 3 cell lines
- doubling compared with that seen with the vehicle [6]: less than 1/10
- Doublings [6]: 0.6
- cell count after 4 days of growth (single replicates) [6]: 2 tens of thousands (3×) and 3 tens of thousands (2×)
- average cell count after 4 days of growth [6]: 2.4 tens of thousands

- IC50 [9]: 2.1 µM
- inhibition at 10 µM [8]: 91.2%
SMILES: CC(=O)c1ccc2c(c1)[C@H]1C=CC[C@H]1[C@@H](c1cc3c(cc1Br)OCO3)N2 [RSS G-1, 1-((3aR,4S,9bS)-4-(6-bromobenzo[d][1,3]dioxol-5-yl)-3a,4,5,9b-tetrahydro-3H-cyclopenta[c]quinolin-8-yl)ethan-1-one]
- CYP1A2 induction [1]: induced at both 10 μM and 100 μM in 2 of the 3 cell lines
- doubling compared with that seen with the vehicle [6]: approximately the same number of doublings as the vehicle
- Doublings [6]: 7.9
- cell count after 4 days of growth (single replicates) [6]: 83 tens of thousands and 94 tens of thousands and 79 tens of thousands and 111 tens of thousands and 107 tens of thousands
- average cell count after 4 days of growth [6]: 94.8 tens of thousands
